What was measured:
Test in all cases: Bliss excess, mean over the matrix (fraction); higher = more synergy
[1] = test system: MDA-MB-361 (Breast Carcinoma)
How it was run: (§1)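 After 24 hours at 37°C and 5% CO2 in 1536-well plates, cells in DMEM/F12 or RPMI plus 10% FBS received two-drug dose matrices for 72 hours. Viability came from CellTiter-Glo 2.0 luminescence and was scaled as inhibition, anchored at 0 by vehicle wells and at 1 by blank wells. Combination Emax is taken as the second-highest inhibition in the matrix, and Bliss excess as the observed combination effect less EA + EB − EA·EB, with EA and EB the single-agent effects.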

[2] = test system: HCC1806 (Breast Carcinoma)
How it was run: as §1

[3] = test system: TCCSUP (Bladder Carcinoma)
How it was run: as §1

[4] = test system: MFE-296 (Endometrial Carcinoma)
How it was run: as §1

[5] = test system: ES4 (Ewing's Sarcoma)
How it was run: as §1

[6] = test system: NOS-1 (Osteosarcoma)
How it was run: as §1

[7] = test system: KP-1N (Pancreatic Carcinoma)
How it was run: as §1

[8] = test system: CaR-1 (Colorectal Carcinoma)
How it was run: as §1

[9] = test system: LNCaP-Clone-FGC (Prostate Carcinoma)
How it was run: as §1

[10] = test system: B-CPAP (Thyroid Gland Carcinoma)
How it was run: as §1

[11] = test system: HuP-T4 (Pancreatic Carcinoma)
How it was run: as §1

[12] = test system: UM-UC-3 (Bladder Carcinoma)
How it was run: as §1

[13] = test system: DoTc2-4510 (Cervical Carcinoma)
How it was run: as §1

[14] = test system: NB10 (Neuroblastoma)
How it was run: as §1

[15] = test system: LS-180 (Colorectal Carcinoma)
How it was run: as §1

[16] = test system: HT-1376 (Bladder Carcinoma)
How it was run: as §1

[17] = test system: Ramos-2G6-4C10 (Burkitt's Lymphoma)
How it was run: as §1

[18] = test system: NCI-H2085 (Non-Small Cell Lung Carcinoma)
How it was run: as §1

[19] = test system: Calu-3 (Lung Adenocarcinoma)
How it was run: as §1

[20] = test system: SK-ES-1 (Ewing's Sarcoma)
How it was run: as §1

| SMILES | Bliss excess [1] | Bliss excess [2] | Bliss excess [3] | Bliss excess [4] | Bliss excess [5] | Bliss excess [6] | Bliss excess [7] | Bliss excess [8] | Bliss excess [9] | Bliss excess [10] | Bliss excess [11] | Bliss excess [12] | Bliss excess [13] | Bliss excess [14] | Bliss excess [15] | Bliss excess [16] | Bliss excess [17] | Bliss excess [18] | Bliss excess [19] | Bliss excess [20] |
| --- | --- | --- | --- | --- | --- | --- | --- | --- | --- | --- | --- | --- | --- | --- | --- | --- | --- | --- | --- | --- |
| COc1nnc2ccc(N3CCC(c4ccc(OCCN5CCN(C)C(=O)[C@H]5C)cc4)CC3)nn12 [AZD5153] + CCN(CCO)CCCOc1ccc2c(Nc3cc(CC(=O)Nc4cccc(F)c4)[nH]n3)ncnc2c1 [AZD2811] (first compound max 1 µM, 7x7, partner max 1 µM) | -0.0448 | -0.042 | -0.0398 | -0.0264 | 0.0055 | -0.0391 | -0.0273 | -0.0663 | -0.0081 | -0.0367 | -0.0595 | 0.0346 | -0.0067 | -0.0289 | -0.111 | -0.0381 | -0.0004 | -0.0594 | -0.0303 | -0.0695 |
| COc1nnc2ccc(N3CCC(c4ccc(OCCN5CCN(C)C(=O)[C@H]5C)cc4)CC3)nn12 [AZD5153] + C[C@@H]1COCCN1C2=NC(=NC(=C2)C3(CC3)[S@](=N)(=O)C)C4=C5C=CNC5=NC=C4 [AZD6738] (first compound max 1 µM, 7x7, partner max 10 µM) | -0.0172 | 0.0113 | -0.0327 | 0.0129 | 0.0104 | 0.0006 | 0.131 | 0.0411 | -0.0318 | 0.0219 | -0.028 | 0.0647 | 0.0412 | 0.0214 | -0.0165 | -0.0006 | -0.0534 | 0.0107 | 0.0066 | 0.0023 |
| COc1nnc2ccc(N3CCC(c4ccc(OCCN5CCN(C)C(=O)[C@H]5C)cc4)CC3)nn12 [AZD5153] + Cc1c2c(nn1C)CSCc1cc(n(C)n1)CSc1cc(c3ccccc3c1)OCCCc1c(C(=O)O)n(C)c3c-2c(Cl)ccc13 [AZD5991] (first compound max 1 µM, 7x7, partner max 1 µM) | -0.0406 | -0.0137 | -0.0234 | 0.028 | -0.0665 | 0.0399 | -0.0176 | -0.0548 | -0.0722 | -0.0224 | -0.0461 | 0.0031 | -0.0358 | -0.0446 | -0.0279 | -0.0135 | 0.0407 | -0.0081 | -0.0288 | 0.0048 |
| COc1nnc2ccc(N3CCC(c4ccc(OCCN5CCN(C)C(=O)[C@H]5C)cc4)CC3)nn12 [AZD5153] + Cn1cnc2c(F)c(Nc3ccc(Br)cc3Cl)c(C(=O)NOCCO)cc21 [Selumetinib] (first compound max 1 µM, 7x7, partner max 10 µM) | 0.0073 | -0.0233 | -0.0264 | -0.0519 | -0.0697 | 0.066 | -0.0417 | 0.0208 | -0.0583 | -0.0435 | 0.0621 | 0.113 | -0.0002 | -0.0687 | -0.0284 | 0.0081 | -0.0465 | 0.027 | 0.0229 | -0.0188 |
| Cc1c2c(nn1C)CSCc1cc(n(C)n1)CSc1cc(c3ccccc3c1)OCCCc1c(C(=O)O)n(C)c3c-2c(Cl)ccc13 [AZD5991] + C1CN(CCC1(C(=O)N[C@@H](CCO)C2=CC=C(C=C2)Cl)N)C3=NC=NC4=C3C=CN4 [Capivasertib] (first compound max 1 µM, 7x7, partner max 3 µM) | 0.0211 | 0.0085 | 0.0229 | 0.094 | 0.0162 | 0.0511 | 0.0154 | -0.0295 | -0.043 | -0.0249 | 0.0085 | -0.0231 | 0.0544 | -0.0316 | 0.0195 | -0.01 | 0.0094 | -0.0334 | 0.0134 | 0.0217 |
| Cc1c2c(nn1C)CSCc1cc(n(C)n1)CSc1cc(c3ccccc3c1)OCCCc1c(C(=O)O)n(C)c3c-2c(Cl)ccc13 [AZD5991] + CC1(C)CCC(CN2CCN(c3ccc(C(=O)NS(=O)(=O)c4ccc(NCC5CCOCC5)c([N+](=O)[O-])c4)c(Oc4cnc5[nH]ccc5c4)c3)CC2)=C(c2ccc(Cl)cc2)C1 [Venetoclax] (first compound max 1 µM, 7x7, partner max 1 µM) | 0.0194 | -0.0299 | -0.0662 | -0.002 | -0.0286 | 0.0241 | -0.0262 | -0.0225 | -0.0476 | -0.0306 | -0.0106 | -0.0062 | 0.0024 | 0.0065 | 0.0019 | -0.0465 | 0.0339 | -0.0042 | 0.0015 | 0.167 |
| Cc1c2c(nn1C)CSCc1cc(n(C)n1)CSc1cc(c3ccccc3c1)OCCCc1c(C(=O)O)n(C)c3c-2c(Cl)ccc13 [AZD5991] + CCN(CCO)CCCOc1ccc2c(Nc3cc(CC(=O)Nc4cccc(F)c4)[nH]n3)ncnc2c1 [AZD2811] (first compound max 1 µM, 7x7, partner max 1 µM) | 0.0399 | 0.0297 | -0.0288 | 0.0533 | 0.0003 | -0.0222 | -0.0662 | -0.0004 | 0.0567 | 0.0082 | -0.0024 | 0.0296 | 0.0509 | 0.0335 | 0.0652 | -0.0077 | 0.141 | -0.0575 | -0.0024 | 0.0028 |
| Cc1c2c(nn1C)CSCc1cc(n(C)n1)CSc1cc(c3ccccc3c1)OCCCc1c(C(=O)O)n(C)c3c-2c(Cl)ccc13 [AZD5991] + CN(C)CCCOc1ccc(-c2ccc3ncc4c(c3c2)n(C2CCOCC2)c(=O)n4C)cn1 [AZD0156] (first compound max 1 µM, 7x7, partner max 1 µM) | -0.016 | 0.0346 | -0.0332 | 0.0092 | 0.0042 | -0.0581 | -0.0132 | -0.0271 | -0.0275 | 0.0094 | 0.0351 | -0.0084 | 0.0422 | 0.0269 | 0.0054 | 0.0039 | 0.0226 | -0.0266 | 0.0066 | -0.004 |
| Cc1c2c(nn1C)CSCc1cc(n(C)n1)CSc1cc(c3ccccc3c1)OCCCc1c(C(=O)O)n(C)c3c-2c(Cl)ccc13 [AZD5991] + C[C@@H]1COCCN1C2=NC(=NC(=C2)C3(CC3)[S@](=N)(=O)C)C4=C5C=CNC5=NC=C4 [AZD6738] (first compound max 1 µM, 7x7, partner max 10 µM) | 0.0182 | 0.0218 | 0.0241 | 0.0723 | -0.0118 | 0.0854 | 0.0679 | -0.0134 | 0.0123 | 0.0032 | 0.0361 | 0.0159 | -0.0327 | 0.0339 | 0.0196 | 0.0144 | 0.0097 | 0.0312 | 0.0119 | 0.017 |
| Cc1c2c(nn1C)CSCc1cc(n(C)n1)CSc1cc(c3ccccc3c1)OCCCc1c(C(=O)O)n(C)c3c-2c(Cl)ccc13 [AZD5991] + C[C@@H](Nc1cc(F)cc(F)c1)c1cc(C(=O)N(C)C)cc2c(=O)cc(N3CCOCC3)oc12 [AZD8186] (first compound max 1 µM, 7x7, partner max 3 µM) | -0.0102 | 0.0026 | 0.0237 | 0.0197 | -0.0286 | 0.023 | -0.0533 | -0.0187 | -0.0234 | -0.0409 | 0.0505 | 0.0098 | 0.0486 | -0.0444 | -0.0189 | -0.0304 | -0.0074 | -0.043 | 0.0441 | 0.023 |
| Cc1c2c(nn1C)CSCc1cc(n(C)n1)CSc1cc(c3ccccc3c1)OCCCc1c(C(=O)O)n(C)c3c-2c(Cl)ccc13 [AZD5991] + Cn1cnc2c(F)c(Nc3ccc(Br)cc3Cl)c(C(=O)NOCCO)cc21 [Selumetinib] (first compound max 1 µM, 7x7, partner max 3 µM) | -0.0168 | 0.0254 | -0.0066 | 0.0234 | -0.0173 | 0.0887 | -0.029 | -0.03 | -0.0301 | -0.0219 | 0.113 | 0.0332 | 0.0343 | 0.0122 | 0.0454 | 0.0144 | -0.0074 | -0.0344 | -0.015 | -0.0186 |
| C[C@@H]1COCCN1c1cc(C2([S@](C)(=N)=O)CC2)nc(-c2ccnc3[nH]ccc23)n1 [AZD6738] + O=C(c1cc(Cc2n[nH]c(=O)c3ccccc23)ccc1F)N1CCN(C(=O)C2CC2)CC1 [Olaparib] (first compound max 10 µM, 7x7, partner max 10 µM) | -0.0376 | 0.0103 | 0.067 | 0.029 | 0.0608 | 0.0554 | 0.0379 | -0.0391 | -0.0297 | 0.0364 | -0.0037 | 0.0829 | 0.0652 | 0.0017 | 0.0208 | -0.0687 | -0.0881 | -0.0571 | 0.0139 | 0.0804 |
| Cc1cc2ncnn2cc1Nc1ncc2c(n1)n(C1CCOCC1)c(=O)n2C [AZD7648] + C=CCn1c(=O)c2cnc(Nc3ccc(N4CCN(C)CC4)cc3)nc2n1-c1cccc(C(C)(C)O)n1 [AZD1775] (first compound max 10 µM, partner max 1 µM) | -0.0854 | 0.0373 | -0.0109 | -0.0096 | 0.0337 | -0.0145 | -0.0681 | 0.0022 | -0.0273 | -0.0273 | 0.0417 | 0.0279 | -0.0004 | -0.0812 | -0.0272 | 0.0121 | 0.0005 | 0.0418 | -0.0073 | 0.0322 |
| Cc1cc2ncnn2cc1Nc1ncc2c(n1)n(C1CCOCC1)c(=O)n2C [AZD7648] + CCN(CCO)CCCOc1ccc2c(Nc3cc(CC(=O)Nc4cccc(F)c4)[nH]n3)ncnc2c1 [AZD2811] (first compound max 10 µM, 7x7, partner max 1 µM) | -0.0082 | 0.071 | 0.0258 | -0.0112 | 0.0076 | -0.0036 | -0.02 | -0.0102 | -0.003 | -0.0264 | 0.0254 | 0.001 | -0.0115 | 0.0524 | 0.0165 | -0.0382 | 0.188 | 0.0409 | 0.002 | 0.0065 |

Reference: the supplement of paper PMC11061612
